Data from patent publication US20080292584A1 (priority 2005, published 2008).
Several values for one entry are separate records, joined by “and”; a condition that tells them apart may be missing. Equal values may be shown once. Read-outs that look alike come from different tables or passages of the source.

What was measured:
CYP2D6 = CYP2D6 (Homo sapiens, UniProt P10635); settings: both, pH 7.4; for Mean Conc.: 60 min; for % Turnover Mean: microsomes, 1 h
Protocol: Human liver microsomes pooled from 15 individuals (male and female) (Pool HMMC-PL020; CellzDirect, Inc., In Vitro Products and Services Division) were used in some experiments of this study.
% Turnover=100−{[TA(final)]/[mean of TA(0 min)]}×100,
% Inhibition of Turnover=100{1−([TA(0 min)]−[TA(final-inhibitor)])/([TA(0 min)]−[TA(final-no inhibitor)])}.
The inhibitors or vehicle control were incubated with the pooled human liver microsomes (1 mg/mL) and NADPH (1 mM) in 0.1 M phosphate buffer, pH 7.4. […] Incubations were conducted in triplicate and terminated by addition of organic solvent. Samples were extracted and analyzed by LC-MS/MS as described above.

CYP2E1 = CYP2E1 (Homo sapiens, UniProt P05181); test: Induction/inhibition of CYP2E1 activity in cryopreserved human hepatocytes (chlorzoxazone)
Source text: (§1) Hepatocytes from three human donors were obtained from a cryopreserved hepatocyte bank (In Vitro Technologies, Inc., USA). After thawing, viable hepatocytes were transferred to collagen-coated 48-well plates for attachment in plating medium (DMEM stock (Dulbecco's modified Eagle's medium, supplemented with bovine serum albumin, fructose, N-(2-hydroxyethyl)piperazine-N′-(2-ethanesulfonate) (HEPES), and sodium bicarbonate), supplemented with antibiotics, bovine serum, hydrocortisone, insulin and minimum essential medium (MEM) nonessential amino acids). After attachment to the collagen matrix, plating medium was replaced with sandwich medium (plating medium supplemented with VITROGEN) and incubated until use.
(§2) The supplemented KHB was replaced with 150 μL supplemented KHB containing the appropriate isoform-selective substrate and incubated for 4 hrs prior to termination by adding 150 μL ice-cold methanol, except for the CYP2C8 incubations which were terminated by adding 150 μL acetonitrile.
(§3) All substrates were dissolved in acetonitrile.
(§4) Replicate trials and controls were performed. […] Additionally, reference control samples were included to evaluate inducibility of CYP2B6, CYP2C9, and CYP2C19 in the test system.
(§5) Mean specific activity values with associated p-values≦0.05 were deemed to be statistically significant.

CYP2C9 = CYP2C9 (Homo sapiens, UniProt P11712); test: Induction/inhibition of CYP2C9 activity in cryopreserved human hepatocytes (tolbutamide)
Source text: as §1, §2, §3, §4, §5

Sequence of CYP2D6 (P10635 whole entry): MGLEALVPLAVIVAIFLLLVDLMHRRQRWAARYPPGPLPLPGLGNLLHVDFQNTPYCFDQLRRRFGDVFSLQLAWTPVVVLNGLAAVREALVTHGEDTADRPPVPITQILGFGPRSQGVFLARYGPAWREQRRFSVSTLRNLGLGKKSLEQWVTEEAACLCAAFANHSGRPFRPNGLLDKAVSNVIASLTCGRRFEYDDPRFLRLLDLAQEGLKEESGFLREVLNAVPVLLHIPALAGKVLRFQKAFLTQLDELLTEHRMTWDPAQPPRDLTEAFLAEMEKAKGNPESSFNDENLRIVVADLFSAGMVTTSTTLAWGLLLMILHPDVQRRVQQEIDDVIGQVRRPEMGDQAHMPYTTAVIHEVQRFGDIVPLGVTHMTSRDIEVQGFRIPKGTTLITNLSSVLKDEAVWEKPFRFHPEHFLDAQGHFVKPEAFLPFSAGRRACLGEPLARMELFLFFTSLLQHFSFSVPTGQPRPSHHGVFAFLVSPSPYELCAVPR
Sequence of CYP2E1 (P05181 whole entry): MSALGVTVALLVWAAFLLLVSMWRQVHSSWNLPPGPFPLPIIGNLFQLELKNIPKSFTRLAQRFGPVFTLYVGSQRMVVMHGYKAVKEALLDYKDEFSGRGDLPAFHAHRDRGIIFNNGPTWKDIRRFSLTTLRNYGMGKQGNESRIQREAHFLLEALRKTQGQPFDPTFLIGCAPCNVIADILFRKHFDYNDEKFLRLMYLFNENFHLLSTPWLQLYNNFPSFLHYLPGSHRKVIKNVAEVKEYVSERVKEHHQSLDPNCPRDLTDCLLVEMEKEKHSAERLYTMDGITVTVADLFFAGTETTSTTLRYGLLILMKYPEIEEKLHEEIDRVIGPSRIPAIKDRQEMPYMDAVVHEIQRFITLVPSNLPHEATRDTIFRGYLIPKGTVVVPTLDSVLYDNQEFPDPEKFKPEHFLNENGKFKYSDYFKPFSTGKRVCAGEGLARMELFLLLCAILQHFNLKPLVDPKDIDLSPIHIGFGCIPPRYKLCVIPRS
Sequence of CYP2C9 (P11712 whole entry): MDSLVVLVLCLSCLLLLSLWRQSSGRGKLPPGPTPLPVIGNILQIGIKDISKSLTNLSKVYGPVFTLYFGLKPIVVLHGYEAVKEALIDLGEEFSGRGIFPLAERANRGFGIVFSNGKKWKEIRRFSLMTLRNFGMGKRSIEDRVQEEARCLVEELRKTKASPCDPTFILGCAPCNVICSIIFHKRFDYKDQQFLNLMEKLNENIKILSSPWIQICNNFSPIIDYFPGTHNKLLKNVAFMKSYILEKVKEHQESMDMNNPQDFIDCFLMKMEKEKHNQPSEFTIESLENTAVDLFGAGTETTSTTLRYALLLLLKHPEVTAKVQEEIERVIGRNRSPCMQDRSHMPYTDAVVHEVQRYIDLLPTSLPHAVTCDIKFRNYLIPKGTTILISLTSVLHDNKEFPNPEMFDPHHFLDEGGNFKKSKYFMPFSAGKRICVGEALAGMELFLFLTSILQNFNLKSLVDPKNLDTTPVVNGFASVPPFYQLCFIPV

SMILES: Cc1cc(C)cc(OCC2CNC(=O)O2)c1 (centres unmarked) [metaxalone, 5-[(3,5-dimethylphenoxy)methyl]-2-oxazolidinone]
- Mean Conc. (CYP2D6; 0.75 μM): 0.769 µM
- Mean Conc. (CYP2D6; 7.5 μM): 7.66 µM
- % Turnover Mean (CYP2D6; 0.75 μM): 0.376%
- % Turnover Mean (CYP2D6; 7.5 μM): 10.0%
- Inducer/Inhibitor (CYP2E1; CYP isozyme 2E1, summary of studies): 0
- Specific Activity Individual (CYP2E1; Donor 1, Metaxalone 0.4 μM): 2.58 pmol/min/million cells and 2.66 pmol/min/million cells and 2.19 pmol/min/million cells
- Specific Activity Mean ± SD (CYP2E1; Donor 1, Metaxalone 0.4 μM): 2.47 ± 0.249 pmol/min/million cells
- Percent of VC (CYP2E1; Donor 1, Metaxalone 4 μM): 104%
- Specific Activity Individual (CYP2E1; Donor 1, Metaxalone 4 μM): 2.57 pmol/min/million cells and 2.47 pmol/min/million cells and 2.87 pmol/min/million cells
- Specific Activity Mean ± SD (CYP2E1; Donor 1, Metaxalone 4 μM): 2.64 ± 0.210 pmol/min/million cells
- Percent of VC (CYP2E1; Donor 1, Metaxalone 40 μM): 104%
- Specific Activity Individual (CYP2E1; Donor 1, Metaxalone 40 μM): 2.54 pmol/min/million cells and 2.66 pmol/min/million cells and 2.69 pmol/min/million cells
- Specific Activity Mean ± SD (CYP2E1; Donor 1, Metaxalone 40 μM): 2.63 ± 0.0782 pmol/min/million cells
- Percent of VC (CYP2E1; Donor 2, Metaxalone 0.4 μM): 104%
- Specific Activity Individual (CYP2E1; Donor 2, Metaxalone 0.4 μM): 0.631 pmol/min/million cells and 0.683 pmol/min/million cells and 0.765 pmol/min/million cells
- Specific Activity Mean ± SD (CYP2E1; Donor 2, Metaxalone 0.4 μM): 0.693 ± 0.0673 pmol/min/million cells
- Percent of VC (CYP2E1; Donor 2, Metaxalone 4 μM): 89.6%
- Specific Activity Individual (CYP2E1; Donor 2, Metaxalone 4 μM): 0.564 pmol/min/million cells and 0.605 pmol/min/million cells and 0.626 pmol/min/million cells
- Specific Activity Mean ± SD (CYP2E1; Donor 2, Metaxalone 4 μM): 0.598 ± 0.0317 pmol/min/million cells
- Percent of VC (CYP2E1; Donor 2, Metaxalone 40 μM): 99.6%
- Specific Activity Individual (CYP2E1; Donor 2, Metaxalone 40 μM): 0.558 pmol/min/million cells and 0.633 pmol/min/million cells and 0.804 pmol/min/million cells
- Specific Activity Mean ± SD (CYP2E1; Donor 2, Metaxalone 40 μM): 0.665 ± 0.126 pmol/min/million cells
- Percent of VC (CYP2E1; Donor 3, Metaxalone 0.4 μM): 90.7%
- Specific Activity Individual (CYP2E1; Donor 3, Metaxalone 0.4 μM): 0.449 pmol/min/million cells and 0.474 pmol/min/million cells and 0.462 pmol/min/million cells
- Specific Activity Mean ± SD (CYP2E1; Donor 3, Metaxalone 0.4 μM): 0.462 ± 0.0125 pmol/min/million cells
- Percent of VC (CYP2E1; Donor 3, Metaxalone 4 μM): 87.7%
- Specific Activity Individual (CYP2E1; Donor 3, Metaxalone 4 μM): 0.468 pmol/min/million cells and 0.464 pmol/min/million cells and 0.406 pmol/min/million cells
- Specific Activity Mean ± SD (CYP2E1; Donor 3, Metaxalone 4 μM): 0.446 ± 0.0348 pmol/min/million cells
- Percent of VC (CYP2E1; Donor 3, Metaxalone 40 μM): 93.9%
- Specific Activity Individual (CYP2E1; Donor 3, Metaxalone 40 μM): 0.470 pmol/min/million cells and 0.495 pmol/min/million cells and 0.469 pmol/min/million cells
- Specific Activity Mean ± SD (CYP2E1; Donor 3, Metaxalone 40 μM): 0.478 ± 0.0146 pmol/min/million cells
- effects on CYP activity (CYP2E1; any of the tested concentrations (0.4, 4.0, 40 μM)): no significant effects
- Inducer/Inhibitor (CYP2C9): −
- Percent of VC (CYP2C9; Donor 1, Metaxalone 0.4 μM): 108%
- Percent of VC (CYP2C9; Donor 1, Metaxalone 4 μM): 100%
- Percent of VC (CYP2C9; Donor 1, Metaxalone 40 μM): <73.2%
- Percent of VC (CYP2C9; Donor 2, Metaxalone 4 μM): 92.9%
- Percent of VC (CYP2C9; Donor 2, Metaxalone 40 μM): 60.4%
- Percent of VC (CYP2C9; Donor 3, Metaxalone 0.4 μM): 111%
- Percent of VC (CYP2C9; Donor 3, Metaxalone 40 μM): 78.4%
- Specific Activity Mean ± SD (CYP2C9; Donor 3, Metaxalone 40 μM): 0.127 ± 0.005 pmol/min/million cells
- Specific Activity Mean ± SD (CYP2C9; human, 48 h, 0.4 µM): 0.179 ± 0.0111 pmol/min/million cells
- Specific Activity Mean ± SD (CYP2C9; human, 48 h, 4 µM): 0.167 ± 0.0210 pmol/min/million cells
- effect on CYP2C9 activity (CYP2C9; human, hepatocytes, 48 h, 40 μM): significantly reduced CYP2C9 activity
